Results taken from article PMC8876959, “Comparative Evaluation of Radiochemical and Biological Properties of ^131I- and [^99mTc]Tc(CO)3-Labeled RGD Analogues Planned to Interact with the αvβ3 Integrin Expressed in Glioblastoma” (Pharmaceuticals, 2022).

Legend:
[1] = Ex vivo biodistribution in glioblastoma allograft tumor-bearing (model) rats; parameters: species or system rat; details: for Ex vivo biodistribution, Blood / Ex vivo biodistribution, Brain / Ex vivo biodistribution, Heart / Ex vivo biodistribution, Kidneys / Ex vivo biodistribution, Liver / Ex vivo biodistribution, Lungs / Ex vivo biodistribution, Spleen / Ex vivo biodistribution, Stomach: model rats, gamma counter, mean ± SEM, n = 3
Protocol: (§1) Adult male Sprague Dawley rats (280–320 g) were maintained under controlled environmental conditions (12 h light-dark cycle; constant temperature 21 ± 2 °C), with free access to water and food. Tumorigenic glioblastoma cells were implanted in the right frontal cortex, following specific coordinates (referred to bregma): anteroposterior = 1.0 mm; lateral = 3.0 mm; depth = 5.0 mm. An aliquot of culture medium (10 µL) containing 1 × 10^6 C6 cells in suspension was injected slowly (1 µL/min) using a Hamilton syringe positioned on a stereotaxic surgery frame. In the control group, only the culture medium, without cells, was injected. An interval of 20 days after cell inoculation was allowed for tumor development.
(§2) The ex vivo biodistribution of each radiolabeled peptide (4 MBq; 0.2 mL) was evaluated at 15, 60, and 240 min after IV injection in control and tumor-bearing animals (n = 3 per group, per time point). The molar activities in this study were 0.68 and 16.2 MBq/nmol for the iodine and tricarbonyl-labeled peptides, respectively. Animals were deeply anesthetized and sacrificed at the corresponding biodistribution time point. Brain, spleen, heart, stomach, liver, lungs, kidneys, and blood were collected and weighed. Then, their radioactivities were determined using the above-mentioned automatic gamma counter. The radioactivity of each organ/tissue was evaluated as the percentage of injected dose per gram of organ/tissue (% ID/g), using the same injected dose activity as a standard.

[2] = RP-HPLC retention time (used as an indication of hydrophobicity); assay type: physicochemical; details: C18 column, 0.1% TFA:H2O (A), 60% acetonitrile/0.1% TFA:H2O (B), 5-95% B in 30 min, 1.0 mL/min; radioactivity detector (slight delay versus UV signal)
Protocol: RP-HPLC analyzes were performed on a Proeminence LC-20A system (Shimadzu; Kyoto, Japan). The column selected was Vydac C18 150 × 4.6 mm, with a particle size of 5 μm, a pore size of 300 Å. Chromatograms were performed at λ = 220 nm. Peaks were eluted using solvent systems composed of 0.1% TFA:H2O as solvent A and 60% acetonitrile/0.1% TFA:H2O as solvent B, on a gradient of 5–95% of solvent B at a flow rate of 1.0 mL·min^−1 for 30 min (n = 3).
RP-HPLC analyzes were performed on a 1290 Infinity II UHPLC system (Agilent Technologies; Saint Clair, CA, USA) fitted with a radioactivity detector (Eckert & Ziegler; Berlin, Germany) and Open Lab ECM data system (Agilent Technologies; Saint Clair, CA, USA) to confirm the yield and purity of both radiolabeled peptides. Analyzes were performed using a Phenomenex C18 column (150 × […]; 5 µm particle size; 300 Å pore size), detection at λ = 220 nm, using 0.1% TFA:H2O as solvent A and 60% acetonitrile/0.1% TFA:H2O as solvent B. A gradient of 5% to 95% of solvent B in 30 min was used at a flow rate of 1.0 mL·min^−1.

C6 tumorigenic cells = test: Binding and internalization in C6 tumorigenic cells; assay type: cell-based, rat; details: 37 °C; for Bound fraction: 2 × 10^6 cells, 10 nmol radiopeptide
Protocol: The C6 cells were incubated at 37 °C in a humidified atmosphere containing 5% CO2 and maintained in culture using Dulbecco’s Modified Eagle Medium (DMEM)—F12 (Gibco; Gaithersburg, MD, USA) supplemented with 10% fetal bovine serum (Sigma-Aldrich; Darmstadt, Germany) and 1% glutamine (Sigma-Aldrich; Darmstadt, Germany). Cells were grown to 75% confluence and then harvested by trypsinization (0.04% trypsin/EDTA). After centrifugation (151× g for 5 min), the cells were resuspended in DMEM—F12 to a final concentration of […] for the development of the glioblastoma animal model.
An aliquot containing 2 × 10^6 C6 cells in supplemented DMEM-F12 culture medium (450 µL) was added to a vial and incubated with 10 nmol of the radiolabeled peptide at 37 °C with gentle agitation. The studies were evaluated at 1, 4 and 24 h (n = 7 for each time point). Then, the vials were centrifuged (604× g for 5 min). The radioactivities of the pellet and supernatant were separately evaluated using an automatic Wizard 3 2480 gamma counter (Perkin Elmer; Norwalk, CT, USA). The percentage of the bound fraction was calculated by Equation (1). (1) % bound fraction=Pellet radioactivity (cpm)/Pellet radioactivity (cpm)+supernatant radioactivity (cpm)×100
In the sequence, a second radioactivity determination was performed. For that, pellets were resuspended using 0.5 mL of acid buffer (0.2 M acetic acid in 0.5 M NaCl solution; pH 2.8) and maintained at room temperature for 5 min to remove the radiolabeled molecule attached to the cell membrane surface. Then, the vials were centrifuged (1677× g for 5 min). The pellet and supernatant were separated and their radioactivities were measured using the above-mentioned automatic gamma counter. The percentage of the internalized fraction of radiopeptides was estimated based on the ratio between the activity contained in the precipitate and the supernatant and calculated by Equation (2):(2) % internalized fraction=Pellet radioactivity (cpm)/Pellet radioactivity (cpm)+supernatant radioactivity (cpm)×100

[3] = Ex vivo biodistribution in normal (control) rats; parameters: species or system rat; details: gamma counter, mean ± SEM, n = 3
Protocol: as §1, §2

## [^99mTc]Tc(CO)3-GRGDHV
[1]; 15 min after IV injection
  Ex vivo biodistribution, Blood: 10.28 ± 2.93 %ID/g
  Ex vivo biodistribution, Brain: 0.71 ± 0.01 %ID/g
  Ex vivo biodistribution, Heart: 5.40 ± 0.48 %ID/g
  Ex vivo biodistribution, Kidneys: 58.33 ± 1.43 %ID/g
  Ex vivo biodistribution, Liver: 7.04 ± 0.68 %ID/g
  Ex vivo biodistribution, Lungs: 10.03 ± 2.56 %ID/g
  Ex vivo biodistribution, Spleen: 3.74 ± 0.33 %ID/g
  Ex vivo biodistribution, Stomach: 4.44 ± 1.25 %ID/g
[1]; 60 min after IV injection
  Ex vivo biodistribution, Blood: 8.91 ± 0.94 %ID/g
  Ex vivo biodistribution, Brain: 0.81 ± 0.01 %ID/g
  Ex vivo biodistribution, Heart: 5.14 ± 0.73 %ID/g
  Ex vivo biodistribution, Kidneys: 58.99 ± 1.13 %ID/g
  Ex vivo biodistribution, Liver: 8.29 ± 0.43 %ID/g
  Ex vivo biodistribution, Lungs: 7.83 ± 0.20 %ID/g
  Ex vivo biodistribution, Spleen: 2.88 ± 0.32 %ID/g
  Ex vivo biodistribution, Stomach: 7.28 ± 0.88 %ID/g
[1]; 240 min after IV injection
  Ex vivo biodistribution, Blood: 10.32 ± 1.51 %ID/g
  Ex vivo biodistribution, Brain: 1.57 ± 0.11 %ID/g
  Ex vivo biodistribution, Heart: 4.80 ± 0.11 %ID/g
  Ex vivo biodistribution, Kidneys: 40.44 ± 2.99 %ID/g
  Ex vivo biodistribution, Liver: 11.62 ± 1.01 %ID/g
  Ex vivo biodistribution, Lungs: 9.38 ± 1.89 %ID/g
  Ex vivo biodistribution, Spleen: 4.12 ± 0.79 %ID/g
  Ex vivo biodistribution, Stomach: 14.60 ± 2.07 %ID/g
[1]; judged from ex vivo biodistribution (stomach uptake) in rats
  In vivo radiochemical stability: better in vivo radiochemical stability
[2]
  RP-HPLC retention time (Rt), radiolabeled peptide: 17.80 min
C6 tumorigenic cells; 1 h, n = 7
  Bound fraction: ~ 22%
C6 tumorigenic cells; 4 h, mean ± SD, n = 7
  Bound fraction: 23.47% ± 1.78
C6 tumorigenic cells; 24 h, n = 7
  Bound fraction: ~ 8%
C6 tumorigenic cells; 1 h, acid buffer wash pH 2.8, n = 7
  Internalized fraction: ~ 34%
C6 tumorigenic cells; 4 h, acid buffer wash pH 2.8, mean ± SD, n = 7
  Internalized fraction: 54.24% ± 3.99
C6 tumorigenic cells; 24 h, acid buffer wash pH 2.8, n = 7
  Internalized fraction: ~ 74%
[3]; 15 min after IV injection
  Ex vivo biodistribution, Blood: 11.30 ± 0.84 %ID/g
  Ex vivo biodistribution, Brain: 0.32 ± 0.01 %ID/g
  Ex vivo biodistribution, Heart: 5.14 ± 0.12 %ID/g
  Ex vivo biodistribution, Kidneys: 62.73 ± 2.17 %ID/g
  Ex vivo biodistribution, Liver: 6.06 ± 0.79 %ID/g
  Ex vivo biodistribution, Lungs: 7.76 ± 0.75 %ID/g
  Ex vivo biodistribution, Spleen: 3.41 ± 0.41 %ID/g
  Ex vivo biodistribution, Stomach: 3.09 ± 0.77 %ID/g
[3]; 60 min after IV injection
  Ex vivo biodistribution, Blood: 9.78 ± 0.52 %ID/g
  Ex vivo biodistribution, Brain: 0.28 ± 0.03 %ID/g
  Ex vivo biodistribution, Heart: 4.41 ± 0.23 %ID/g
  Ex vivo biodistribution, Kidneys: 51.04 ± 1.49 %ID/g
  Ex vivo biodistribution, Liver: 9.55 ± 1.34 %ID/g
  Ex vivo biodistribution, Lungs: 9.25 ± 1.65 %ID/g
  Ex vivo biodistribution, Spleen: 3.69 ± 0.60 %ID/g
  Ex vivo biodistribution, Stomach: 10.27 ± 0.59 %ID/g
[3]; 240 min after IV injection
  Ex vivo biodistribution, Blood: 11.12 ± 1.27 %ID/g
  Ex vivo biodistribution, Brain: 0.60 ± 0.04 %ID/g
  Ex vivo biodistribution, Heart: 4.84 ± 0.37 %ID/g
  Ex vivo biodistribution, Kidneys: 40.17 ± 0.90 %ID/g
  Ex vivo biodistribution, Liver: 12.26 ± 1.34 %ID/g
  Ex vivo biodistribution, Lungs: 8.59 ± 0.64 %ID/g
  Ex vivo biodistribution, Spleen: 4.93 ± 0.45 %ID/g
  Ex vivo biodistribution, Stomach: 10.78 ± 3.11 %ID/g
